The target of experiment [1] is T1, α1 receptors (Rattus norvegicus, UniProt P23944).
T1 construct: their external jugular veins and thoracic aortas dissected free of connective tissue; from tissue; host or cells: thoracic aorta of male Wistar rats
T1 sequence (P23944 1-561): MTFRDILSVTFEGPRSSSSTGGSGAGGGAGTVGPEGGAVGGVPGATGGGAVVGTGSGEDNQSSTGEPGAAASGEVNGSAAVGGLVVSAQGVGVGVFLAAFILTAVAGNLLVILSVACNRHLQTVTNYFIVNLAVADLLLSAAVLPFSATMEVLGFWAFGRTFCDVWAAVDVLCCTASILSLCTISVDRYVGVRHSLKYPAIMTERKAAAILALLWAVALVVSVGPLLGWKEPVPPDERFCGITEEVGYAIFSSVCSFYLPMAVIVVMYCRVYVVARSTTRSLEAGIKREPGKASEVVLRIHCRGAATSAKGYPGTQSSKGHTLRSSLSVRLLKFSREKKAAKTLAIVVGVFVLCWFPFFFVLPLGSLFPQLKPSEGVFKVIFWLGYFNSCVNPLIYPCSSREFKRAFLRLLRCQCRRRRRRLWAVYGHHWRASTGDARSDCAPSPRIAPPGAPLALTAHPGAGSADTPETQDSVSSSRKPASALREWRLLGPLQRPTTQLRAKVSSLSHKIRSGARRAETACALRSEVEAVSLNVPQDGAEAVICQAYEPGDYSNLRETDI
Briefly: alpha1 antagonism in rat aorta (norepinephrine). The class given is biochemical. Here is the method: (§1) An initial optimum resting force of 1 and 4 g was applied to the jugular vein and aorta, respectively. […] Exp. Ther., 205, 400 (1978) and Cohen, Colbert and Wittenauer, Drug Dev. Res., 5 513 (1985) for descriptions of the procedures employed. Alpha receptor antagonist activity was evaluated in the aorta (α1) or guinea pig ileum (α2).
(§2) The -log KB values obtained for 4-hydroxycyclohexyl 1-isopropyl-9,10-dihydrolysergate, isomer mixture (racemate) and pure isomers (cis and trans referring to stereochemistry of the hydroxycyclohexyl group) plus standard error against 5HT2 receptors are given below in Table 1.
(§3) The in vitro rat aorta preparation described above was used for α1 -receptors and the guinea pig ileum for α2 -receptors. ED50 (median effective dose) for norepinephrine was determined in the presence of a 10-5 molar dose of the test compound and this ED50 compared to a control ED50.

Experiment [2] has as its target T2, α2 receptors (Cavia porcellus, UniProt Q60474).
T2 construct: Alpha receptor antagonist activity was evaluated in the aorta (α1) or guinea pig ileum (α2); from tissue; host or cells: guinea pig ileum
T2 sequence (Q60474 1-464): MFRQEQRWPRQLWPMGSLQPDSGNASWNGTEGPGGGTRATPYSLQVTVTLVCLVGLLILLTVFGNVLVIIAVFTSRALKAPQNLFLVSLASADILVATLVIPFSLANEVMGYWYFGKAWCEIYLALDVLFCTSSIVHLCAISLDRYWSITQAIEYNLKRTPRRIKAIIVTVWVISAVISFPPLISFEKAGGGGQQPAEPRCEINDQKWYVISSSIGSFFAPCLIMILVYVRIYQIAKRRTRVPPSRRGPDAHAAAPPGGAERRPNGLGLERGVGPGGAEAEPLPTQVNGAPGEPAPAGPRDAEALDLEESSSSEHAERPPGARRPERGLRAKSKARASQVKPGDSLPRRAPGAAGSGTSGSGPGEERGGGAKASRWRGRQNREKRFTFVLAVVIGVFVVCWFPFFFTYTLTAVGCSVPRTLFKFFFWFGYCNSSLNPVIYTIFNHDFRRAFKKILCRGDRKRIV
Nature of the experiment: alpha2 antagonism in guinea pig ileum. The class given is biochemical. Here is the method:
as §1, §2, §3

In experiment [3] the target is T3, Histamine (Cavia porcellus, UniProt P31389).
T3 construct: histamine or carbamyl choline (muscarinic) contraction in guinea pig trachea; from tissue; host or cells: guinea pig trachea
Briefly: histamine contraction in guinea pig trachea. The class given is biochemical. The text has this:
(§4) The compounds of this invention also lack demonstrable effects against histamine or carbamyl choline (muscarinic) contraction in guinea pig trachea, using standard procedures.

Experiment [4] addresses T4, Muscarinic (Cavia porcellus, UniProt H0W1Z3).
T4 construct: histamine or carbamyl choline (muscarinic) contraction in guinea pig trachea; from tissue; host or cells: guinea pig trachea
Briefly: carbamyl choline (muscarinic) contraction in guinea pig trachea. The class given is biochemical.
Description: as §4

Experiment [5] concerns the target 5HT1 receptors. Nature of the experiment: Rat Cortical Membrane Binding, 5HT1. Particulars: rat cortical membranes; read-out: Rat Cortical Membrane Binding IC50, 5HT.
The target of experiment [6] is T5, 5HT2 receptors (Rattus norvegicus, UniProt P14842). Nature of the experiment: biochemical. The text has this:
The procedures employed are those set forth in Cohen, Colbert and Wittenauer (loc. cit.) for other tissues.

In experiment [7] the test system is 5HT2 receptors. Nature of the experiment: pressor response to serotonin in pithed SHR after oral treatment. The class given is in vivo, spontaneously hypertensive rats (SHR). Particulars: for Curve Shift Relative to trans: pithed SHR. Here is the method: (§5) SHR were anesthesized with halothane, femoral arterial and venous catheters were implanted as before and the trachea was cannulated. Each rat was pithed by passing a steel rod through the right orbit and down the entire length of the spinal column. The steel rod remained in place for the duration of the experiment. Immediately after pithing, the rats were ventilated with room air. An equilibration period of 15 minutes was observed prior to control measurements and administration of drugs or vehicle p.o. Increasing doses of serotonin or the alpha2 agonist clonidine were injected i.v. one or six hours after oral treatment with the […]. The response was recorded and the blood pressure allowed to recover to control levels after serotonin. Cumulative dose-response curves to clonidine were determined. The test drug solution was prepared fresh daily. Tables 5 and 6 give the results of these determinations at a dose level of 0.1 mg/kg.
^a Conscious spontaneously hypertensive rats (SHR) were treated orall
1 hour before anesthesia, pithing and determination of pressordose
response curves to multiple doses of 5HT iv (n= 4-10/group).
^b Dose of 5HT required to increase mean arterial blood pressure by 5
6 hours before anesthesia, pithing and determination of pressordose
response curves to multiple doses of 5HT iv (n = 4-10/group).

Experiment [8] deals with T5, 5HT2 receptors. Nature of the experiment: antagonism of serotonin contraction in rat external jugular vein (5HT2, apparent dissociation constant). As to conditions: antagonist incubated one hour, 37° C., read-out: -log KB (Log Kb ± S.E.), 5HT2 receptors (converted). Also on record: their external jugular veins and thoracic aortas dissected free of connective tissue; from tissue; host or cells: external jugular vein of male Wistar rats. The class given is biochemical, rat (male Wistar). Here is the method:
Compounds according to formula I have an extremely high affinity for 5HT2 receptors, with a much lower affinity for alpha receptors. Ratios of relative dissociation constants for interaction with alpha to 5HT2 receptors are of the order of 200,000-300,000 indicating dramatic selectivity for 5HT2 receptors. The apparent dissociation constants (KB) are a measure of affinity for 5HT2 and alpha receptors and are expressed as the negative logarithm and are determined according to the following protocol.
as §1, §2

For experiment [9], the system named is 5HT2 receptors. As to conditions: Cohen I; cited from earlier work.
Experiment [10] has as its system vascular alpha adrenergic receptors. As to conditions: Cohen I; cited from earlier work.
Experiment [11] relates to vascular dopaminergic receptors. Particulars: Cohen I; cited from earlier work.
The test system of experiment [12] is vascular histaminergic receptors. Particulars: Cohen I; cited from earlier work.
Experiment [13] concerns receptors other than 5HT2 receptors, particularly peripheral alpha2 receptors. As to conditions: cited from earlier work.
The test system of experiment [14] is 5HT receptor. Particulars: literature; cited from earlier work.
In experiment [15] the test system is alpha-receptors. As to conditions: literature; cited from earlier work.
For experiment [16] the following is noted: Berde; cited from earlier work.
The test system of experiment [17] is cranial arteries. As to conditions: with noradrenaline, migraine attack, Aellig; cited from earlier work.
Experiment [18] concerns migraine. Particulars: clinical trial, Lance I, Table 1; cited from earlier work.
Experiment [19] relates to migraine. Particulars: Sulman; cited from earlier work.
Experiment [20] is described as follows: blood pressure and heart rate in spontaneously hypertensive rats. The format is in vivo. Particulars: SHR, oral, 10 mg/kg.
The subject of experiment [21] is alpha2 receptors. Briefly: alpha2 antagonism (clonidine pressor response) in pithed SHR after oral treatment. The class given is in vivo, spontaneously hypertensive rats (SHR). Here is the method: as §5, with “Tables 5 and 6 give the results of these determinations at a dose level of 0.1 mg/kg.” left out
The test system of experiment [22] is dopaminergic. Particulars: literature; cited from earlier work.

T5 sequence (P14842 whole entry): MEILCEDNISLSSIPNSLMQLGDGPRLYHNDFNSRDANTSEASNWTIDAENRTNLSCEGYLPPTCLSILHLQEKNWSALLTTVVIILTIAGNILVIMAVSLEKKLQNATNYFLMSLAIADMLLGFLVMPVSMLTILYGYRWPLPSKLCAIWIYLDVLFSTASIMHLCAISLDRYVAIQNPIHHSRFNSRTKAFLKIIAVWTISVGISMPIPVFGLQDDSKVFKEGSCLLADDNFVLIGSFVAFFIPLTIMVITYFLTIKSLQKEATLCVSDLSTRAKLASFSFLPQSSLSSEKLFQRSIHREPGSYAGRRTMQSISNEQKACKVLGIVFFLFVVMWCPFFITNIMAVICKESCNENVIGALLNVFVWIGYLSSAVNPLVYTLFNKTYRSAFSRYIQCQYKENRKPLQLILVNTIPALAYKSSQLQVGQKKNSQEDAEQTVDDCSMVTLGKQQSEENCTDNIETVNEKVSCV
T3 sequence (P31389 whole entry): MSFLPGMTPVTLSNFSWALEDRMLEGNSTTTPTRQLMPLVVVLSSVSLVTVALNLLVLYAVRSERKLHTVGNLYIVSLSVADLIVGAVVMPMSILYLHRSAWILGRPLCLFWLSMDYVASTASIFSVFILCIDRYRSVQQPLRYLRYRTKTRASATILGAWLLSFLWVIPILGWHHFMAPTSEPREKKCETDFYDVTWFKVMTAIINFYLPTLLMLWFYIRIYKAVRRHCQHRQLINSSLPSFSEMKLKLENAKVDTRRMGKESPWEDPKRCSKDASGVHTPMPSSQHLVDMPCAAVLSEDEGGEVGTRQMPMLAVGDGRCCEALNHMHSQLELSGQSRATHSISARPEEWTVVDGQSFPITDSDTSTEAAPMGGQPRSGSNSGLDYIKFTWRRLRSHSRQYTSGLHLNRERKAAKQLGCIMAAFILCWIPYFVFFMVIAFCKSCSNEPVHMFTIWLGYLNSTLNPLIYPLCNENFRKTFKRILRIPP
T4 sequence (H0W1Z3 1-590): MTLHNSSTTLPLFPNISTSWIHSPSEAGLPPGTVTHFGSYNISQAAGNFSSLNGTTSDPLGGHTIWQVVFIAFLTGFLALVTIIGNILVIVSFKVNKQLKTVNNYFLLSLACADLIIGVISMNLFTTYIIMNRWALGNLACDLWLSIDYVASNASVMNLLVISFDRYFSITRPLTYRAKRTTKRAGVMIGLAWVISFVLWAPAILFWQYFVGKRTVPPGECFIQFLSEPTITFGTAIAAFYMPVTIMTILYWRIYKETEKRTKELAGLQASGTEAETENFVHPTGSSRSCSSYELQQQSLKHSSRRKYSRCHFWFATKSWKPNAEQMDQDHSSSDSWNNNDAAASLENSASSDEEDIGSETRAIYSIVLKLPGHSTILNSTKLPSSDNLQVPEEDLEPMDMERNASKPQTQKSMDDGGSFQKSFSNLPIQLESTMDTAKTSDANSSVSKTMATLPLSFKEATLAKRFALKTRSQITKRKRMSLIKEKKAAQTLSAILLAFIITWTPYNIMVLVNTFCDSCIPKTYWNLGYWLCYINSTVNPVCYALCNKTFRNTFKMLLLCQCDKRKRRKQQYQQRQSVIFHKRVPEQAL

Consider `CC(C)n1cc2c3c(cccc31)[C@H]1C[C@@H](C(=O)O[C@H]3CC[C@H](O)CC3)CN(C)[C@@H]1C2` [trans, trans-4-hydroxycyclohexyl 1-isopropyl-9,10-dihydrolysergate], for which the Kb is 1950 nM in experiment [1]; 66.1 nM in experiment [2]; above 10000 nM in experiment [3]; above 10000 nM in experiment [4]; 0.0955 nM in experiment [8]. Further, the values for the IC50 in [5] and in experiment [6] were 390 nM and 0.7 nM, respectively. In addition, the “potency of trans isomer relative to cis isomer” value in [7] (by extrapolation, po) is 3 X.

In the case of `CC(O)C(C)OC(=O)[C@@H]1C[C@@H]2c3cccc4c3c(cn4C(C)C)C[C@H]2N(C)C1` (stereo partly drawn) [LY53857, 1-isopropyl-6-methyl-8β-(1-methyl-2-hydroxy)propoxycarbonyl-5R-ergoline], in experiment [9], the “antagonism of vascular contraction to serotonin” value is reported as “potent antagonist”. In addition, in experiment [10], the “affinity, vascular alpha adrenergic receptors” value was “minimal affinity”. Also, in experiment [11], the “affinity, vascular dopaminergic receptors” value is reported as “minimal affinity”. The “affinity, vascular histaminergic receptors” value in experiment [12] is on record as “minimal affinity”. Further, in experiment [13], the “effect on receptors other than 5HT2” value is “lack of effect”.

With `CN1C[C@H](C(=O)N[C@]2(C)O[C@@]3(O)[C@@H]4CCCN4C(=O)[C@H](Cc4ccccc4)N3C2=O)C=C2c3cccc4[nH]cc(c34)C[C@H]21` [ergotamine], the “5HT receptor activity (agonist/antagonist) in words” value in experiment [14] was 5HT agonists at low concentrations but antagonistic at higher concentrations. Besides, the “alpha receptor activity in words” value in experiment [15] is “both a partial alpha-agonist and an alpha-antagonist”. Also, the “pressor and emetic activity” value in experiment [16] was “most active compound only in pressor and emetic activity”. For the same molecule, in [17], the “constriction of cranial arteries” value was “act together to constrict cranial arteries”.

With `CCN(CC)C(=O)N[C@H]1C=C2c3cccc4[nH]cc(c34)C[C@H]2N(C)C1` [lysenyl, N-D-6-methylisoergolenyldiethylcarbamide], the “Improvement rate in migraine” value in [18] was 34%.

`CC(C)n1cc2c3c(cccc31)[C@H]1C[C@@H](C(=O)O[C@H]3CC[C@@H](O)CC3)CN(C)[C@@H]1C2` (mixture of isomers) [cis, cis-(±)-4-hydroxycyclohexyl 1-isopropyl-9,10-dihydrolysergate]: the Kb is 4470 nM in experiment [1], 155 nM in experiment [2] and 0.112 nM in experiment [8]. Further, in experiment [7] (0.3 mg/kg po), the curve shift worked out at 6.7. In addition, the “dose of 5HT required to increase mean arterial BP by 50 mmHg” value in [7] (0.3 mg/kg po) is listed as 1800. For the same molecule, the “Curve Shift Relative to trans” value in experiment [7] (one hour after oral 0.1 mg/kg) turned out to be 11.6; in experiment [7] (six hours after oral 0.1 mg/kg), 24.3.

In the case of `CN1CCC(=C2c3ccccc3C(O)c3ccccc32)CC1` (stereo not shown) [danitracene], the pharmacological effects entry in experiment [19] was “antiserotonin, antihistamine and antidepressive affects”.

With `CN1CCC(CN2c3ccccc3Sc3ccccc32)C1` (stereo not shown) [methdilazine], in experiment [18], the “Improvement rate in migraine” value is reported as 45%.

Consider `CN1CCC(=C2c3ccccc3C=Cc3ccccc32)CC1` [cyproheptadine], for which the “Improvement rate in migraine” value in experiment [18] is recorded as 43%.

For the molecule `CC(C)n1cc2c3c(cccc31)[C@H]1C[C@@H](C(=O)OC3CCC(O)CC3)CN(C)[C@@H]1C2` (mixture of isomers) [mixture, 4-hydroxycyclohexyl 1-isopropyl-9,10-dihydrolysergate], the Kb was 14500 nM in experiment [1]; 117 nM in experiment [2]; above 10000 nM in [3]; above 10000 nM in experiment [4]; 0.0661 nM in [8]. Further, the figures for the IC50 in experiment [5] and in [6] were 530 nM and 3 nM, respectively. In experiment [20], the “effect on blood pressure or heart rate” value is reported as “no effect on blood pressure or heart rate”. Moreover, the entries for the “Curve Shift Relative to trans” value in experiment [7] (one hour after oral 0.1 mg/kg) and in [7] (six hours after oral 0.1 mg/kg) were 3.6 and 5.5, respectively. Besides, in experiment [21] (100 mg/kg dose level po), the “alpha2 antagonist activity in pithed rats” value was “slight”. The “specificity (5HT2 vs alpha2) in vivo compared with in vitro” value in [21] (pithed rats, po) is given as “greater specificity”.

On to `CN1CCC(=C2c3ccccc3CCc3sccc32)CC1` [BC105], for which the “Improvement rate in migraine” value in [18] is 50%.

`C[C@@H](CO)NC(=O)[C@@H]1C=C2c3cccc4[nH]cc(c34)C[C@H]2N(C)C1` [ergonovine]: in experiment [14], the “5HT receptor activity (agonist/antagonist) in words” value was 5HT agonist and selective and fairly potent 5HT antagonist in smooth muscle and highly active 5HT antagonist in the uterus. Also, in experiment [22], the “dopaminergic activity in words” value is “weak dopaminergic antagonist”.
